Assay results reported in patent US20100280047A1, “SALTS OF ACTIVE INGREDIENTS WITH POLYMERIC COUNTER-IONS” (BASF SE, priority 2007, published 2010).

How the values were obtained:
[1] = Saturation solubility of haloperidol in aqueous polymer solutions (HPLC of filtrate); format: physicochemical
Description: 1.0 g of haloperidol (free base) was added to 100.0 ml of aqueous polymer solution and stirred for 72 h. […] The undissolved amount of haloperidol was filtered off. The content of haloperidol in the filtrate was determined by HPLC.
For comparison, the saturation solubility of haloperidol was determined in demineralized water, as well as in hydrochloric acid. In the latter case, the corresponding haloperidol hydrochloride is formed.

[2] = Saturation solubility of loperamide in aqueous polymer solutions (HPLC of filtrate); format: physicochemical
Description: 1.0 g of loperamide (free base) was added to 100.0 ml of aqueous polymer solution and stirred for 72 h. […] The undissolved amount of loperamide was filtered off. The content of loperamide in the filtrate was determined by HPLC.
For comparison, the saturation solubility of loperamide was determined in demineralized water, as well as in hydrochloric acid. In the case of the latter, the corresponding loperamide hydrochloride is formed.

O=C(CCCN1CCC(O)(c2ccc(Cl)cc2)CC1)c1ccc(F)cc1 [haloperidol]
Concentration of dissolved haloperidol ([1]; 10% by wt. polymer D in water, stirred 72 h, pH of filtered solution 3.2): 5200 µg/mL
Concentration of dissolved haloperidol ([1]; 20% by wt. polymer A in water, stirred 72 h, pH of filtered solution 3.0): 10300 µg/mL
Concentration of dissolved haloperidol ([1]; 20% by wt. polymer C in water, stirred 72 h, pH of filtered solution 3.3): 7700 µg/mL
Concentration of dissolved haloperidol ([1]; 20% by wt. polymer D in water, stirred 72 h, pH of filtered solution 3.0): 15100 µg/mL
Concentration of dissolved haloperidol ([1]; 20% solution of polymer A plus NaOH to pH 10, pH of filtered solution 10.1): <74 µg/mL
Concentration of dissolved haloperidol ([1]; demineralized water, 0% polymer, stirred 72 h, pH of filtered solution 7.5): <17.8 µg/mL
Concentration of dissolved haloperidol ([1]; hydrochloric acid 10%, no polymer (haloperidol hydrochloride is formed)): <16 µg/mL

CN(C)C(=O)C(CCN1CCC(O)(c2ccc(Cl)cc2)CC1)(c1ccccc1)c1ccccc1 [loperamide]
Concentration of dissolved loperamide ([2]; 10% by wt. polymer A in water, stirred 72 h, pH of filtered solution 2.5): 6200 µg/mL
Concentration of dissolved loperamide ([2]; 10% by wt. polymer B in water, stirred 72 h, pH of filtered solution 2.0): 3900 µg/mL
Concentration of dissolved loperamide ([2]; 20% by wt. polymer A in water, stirred 72 h): 7600 µg/mL
Concentration of dissolved loperamide ([2]; 20% by wt. polymer D in water, stirred 72 h, pH of filtered solution 1.9): 5900 µg/mL
Concentration of dissolved loperamide ([2]; demineralized water, 0% polymer, stirred 72 h): <17 µg/mL
Concentration of dissolved loperamide ([2]; hydrochloric acid 10%, no polymer (loperamide hydrochloride is formed)): <14.9 µg/mL
